Legend:
[1] = tested on: oral mucosa epithelial cells (OMECS); assay: Toxicity of low-dose PS-341 in oral mucosa epithelial cells; format: cell-based, rabbit; conditions: 2.5 nM PS-341 (very low dose), 72 h
Experimental: (§1) After two weeks of cell culture and when the cells grew to form a multilayered tissue like, proteasome inhibitor (PS-341, (Bortezomib/Velcade®, Millennium Pharmaceutical, a highly specific proteasome inhibitor) was added in cell culture media for 24 h and for 72 h at 2.5, 5, 10, 20, and 50 nM, to, respectively achieve proteasome inhibition or proteasome activation.

[2] = tested on: poly-ubiquitinated proteins; assay: Western blot of poly-ubiquitinated proteins in PS-341-treated oral mucosa epithelial cells; format: cell-based, rabbit; conditions: 2.5 nM PS-341, 72 h
Experimental: as §1

[3] = tested on: 26S constitutive proteasome (CPR); assay: Proteasome chymotrypsin-like activity in cultured oral mucosa epithelial cells treated with PS-341; format: cell-based, rabbit
Experimental: as §1
One μg of total protein from sample homogenates was used. The reaction mixture contained 50 mM Tris-HCl pH=8, 1 mM DTT, and 40 μM Suc-Leu-Leu-Val-Tyr-AMC (Sigma Aldrich) substrate for chymotrypsin-like activity or 40 μM of Boc-Leu-Ser-Thr-Arg-AMC for trypsin-like activity or 100 uM of Ac-Gly-Pro-Leu-Asp-AMC (Sigma Aldrich) for Caspase-like activity. 5 mM ATP was added to the reaction mixture to distinguish 26S proteasome activity from 20S proteasome activity. The mixture was then incubated for 30 min at 37° C., and then stopped by adding […] monochloroacetate and 30 mM sodium acetate pH=4.3. Fluorescence was determined by measuring the release of AMC (λ, excitation: 370 nm, λ, emission: 410 nm), using a Perkin Elmer LS 30 spectrofluorometer.

Keratin 4 (K4) = assay: Western blot of K4 in PS-341-treated oral mucosa epithelial cells; format: cell-based, rabbit; conditions: OMECS
Experimental: as §1

Keratin 13 (K13) = assay: Western blot of K13 in PS-341-treated oral mucosa epithelial cells; format: cell-based, rabbit; conditions: OMECS
Experimental: as §1

IκB / NFκB = IκB / NFκB activation in PS-341-treated oral mucosa epithelial cells
[4] = high doses 10 and 50 nM, 24 hours

With CC(C)C[C@H](NC(=O)[C@H](Cc1ccccc1)NC(=O)c1cnccn1)B(O)O [PS-341, Bortezomib] the toxic effects [1] was “does not produce toxic effects”, the poly-ubiquitinated protein accumulation [2] was “no significant poly-ubiquitinated protein accumulation” and the “CPR chymotrypsin-like activity decrease” value ([3]; 2.5 nM PS-341, 24 h, oral mucosa epithelial cells) was 9%. For the same compound, the “increase in proteasome chymotrypsin-like activity versus untreated cells” value ([3]; 2.5 nM PS-341, 72 hours, oral mucosa epithelial cells) was 61%, the “CPR chymotrypsin-like activity decrease” value ([3]; 5 nM PS-341, 24 h, oral mucosa epithelial cells) was −41% and the “proteasome activities at 72 hours” value ([3]; 5 nM PS-341, 72 hours, oral mucosa epithelial cells) was “increased proteasome activities”. For the same compound, the “CPR chymotrypsin-like activity decrease” value ([3]; 10 nM PS-341, 24 h, oral mucosa epithelial cells) was −59%, the “proteasome activities at 72 hours” value ([3]; 10 nM PS-341, 72 hours, oral mucosa epithelial cells) was “increased proteasome activities” and the “CPR chymotrypsin-like activity decrease” value ([3]; 20 nM PS-341, 24 h, oral mucosa epithelial cells) was −84%. The “CPR chymotrypsin-like activity decrease” value ([3]; 50 nM PS-341, 24 h, oral mucosa epithelial cells) was −86%, the Chymotrypsine-like proteasome activity ([3]; high doses 10 and 50 nM, 24 hours, OMECS) was “decreased” and the K4 levels (Keratin 4 (K4); 2.5 nM PS-341, 72 hours) was “decreased”. The K4 level (Keratin 4 (K4); [4]) was “modified and significantly accumulated”, the K13 levels (Keratin 13 (K13); 2.5 nM PS-341, 72 hours) was “decreased” and the K13 level (Keratin 13 (K13); [4]) was “modified and significantly accumulated”. The “levels of expression of Inhibitor Kappa B” value (IκB / NFκB; 2.5 nM PS-341, 72 hours after treatment, OMECS) was “decreased”, the NFκB activation (IκB / NFκB; 2.5 nM PS-341, OMECS) was “blocked NFκB activation” and the IκB (IκB / NFκB; 2.5 nM PS-341, first 24 hours, OMECS) was “stabilizing IκB”.

Reference: patent US10736934B2, “Proteasome modulation for treatment of corneal disorders” (The Lundquist Institute, priority 2015, dated 2020)
